Measured values published in patent US10240133B2, “ERK-derived peptides and uses thereof” (Yeda Research and Development Co. Ltd., priority 2013, dated 2019).

Experiments:
c-Myc = assay: Western blotting of c-Myc phosphorylation; format: cell-based; details: A2158 and A2352 B-Raf melanomas
Procedure: (A) EPE peptide prevents ERK1/2-importin7 interaction. HeLa cells were serum starved (0.1%, 16 hours), pretreated with EPE peptide, scrambled peptide (10 μM, 2 hours) or DMSO, and then stimulated with TPA (250 nM, 15 min). ERK1 were precipitated with αgERK1 Ab; importin7 co-immunoprecipitated with ERK1 was detected by WB with αimportin7 Ab. […] T47D, HeLa, MDA-MB-231 and A2352 cells were serum starved (0.1%, 16 hours), pretreated with EPE peptide, scrambled peptide (10 μM, 2 hours) or DMSO control, and then stimulated with TPA (250 nM, indicated times). Cell extracts were subjected to Western blot analysis with the indicated Abs. (C) EPE peptide inhibits phosphorylation of c-Myc and Elk1 in B-Raf melanomas. A2158 and A2352 cells were treated with scrambled and EPE peptide for two hours and then stimulated with the indicated concentration of TPA for 30 min. […] (D) Quantification of some of the results in B and C. […]
(i) Preparation of cellular extracts for Western Blotting: Cells were rinsed twice with ice-cold PBS and scraped into Radio-immunoprecipitation assay buffer (RIPA; 137 mM NaCl, 20 mM Tris (pH 7.4), 10% glycerol, 1% Triton X-100, 0.5% deoxycholate, 0.1% SDS, 2 mM EDTA, 1 mM PMSF, and 20 μM leupeptin). The extracts were centrifuged (20,000×g, 15 min, 4° C.), and the supernatants were further analyzed by Western blotting. […]

B-Raf melanoma cells = assay: Morphology assay (light microscopy); format: cell-based; details: 10 μM
Procedure: (§1) FIGS. 5A-5D illustrate that the EPE peptide leads to apoptosis of B-Raf mutant cancer cells. (A) The EPE peptide affects the morphology of treated cells. The indicated cells were treated with either the EPE or Scr peptides, DMSO, or taxol for 72 h, and photographed by a light microscope. (B) The EPE peptide induces apoptosis in melanoma cells detected by TUNEL. The indicated cell lines were treated as in A for 24 h. Apoptosis was detected by TUNEL staining. Images were obtained by florescence microscope. (C) Quantification of B. The bar-graph represents percent of apoptotic cells calculated in 10 different fields. (D) The EPE peptide induces apoptosis of melanoma cells detected by PARP cleavage. The indicated cell lines were treated as in (A) for 24 h. Cell extracts were subjected to Western blotting with αPARP Ab.
(§2) Cells were seeded on glass cover slips in a 12-wells plate at 25% confluence with medium containing 1% of FCS. Peptides (EPE or Scr), DMSO, or U0126 in a final concentration of 10 μM, were added after 4 h (considered as time “0”). TUNEL staining was performed at 24 h after the treatment according to manufacturer instruction (Roche Applied Science, Nutley, N.J., USA). Briefly, the medium was removed and cells were fixed with 3% of paraformaldehyde (1.5 h, 23° C.). Cells were rinsed twice with PBS and permeabilized with 0.1% Triton X-100 and 0.1% sodium citrate for 2 min on ice. Cells were rinsed twice with PBS and 28 μl of TUNEL reaction mixture (25 μl of TUNEL label, 2.5 μl of TUNEL enzyme and 0.1 mg/ml of DAPI) was added directly on top of the slide, cells were incubated for 16 h in humid box at 37° C. Cover slips were rinsed three times with PBS and mounted on microscope slides. The slides were dried and then subjected to image acquisition by a florescence microscope. For morphology assay, the cells were seeded at approximately 25% confluence in 6 cm plates with medium containing 1% FCS. Peptides (EPE and Scr) or DMSO or U0126 in a final concentration of 10 μM, were added after 4 h (considered to be time 0), 24 h and 48 h. […]

most cell lines examined = assay: Morphology assay (light microscopy); format: cell-based; details: 10 μM
Procedure: as §1, §2

B-Raf mutated melanomas = assay: Apoptosis (TUNEL, PARP-1 cleavage); format: cell-based; details: 24 h
Procedure: as §1
(§3) Cells were seeded on glass cover slips in a 12-wells plate at 25% confluence with medium containing 1% of FCS. Peptides (EPE or Scr), DMSO, or U0126 in a final concentration of 10 μM, were added after 4 h (considered as time “0”). TUNEL staining was performed at 24 h after the treatment according to manufacturer instruction (Roche Applied Science, Nutley, N.J., USA). Briefly, the medium was removed and cells were fixed with 3% of paraformaldehyde (1.5 h, 23° C.). Cells were rinsed twice with PBS and permeabilized with 0.1% Triton X-100 and 0.1% sodium citrate for 2 min on ice. Cells were rinsed twice with PBS and 28 μl of TUNEL reaction mixture (25 μl of TUNEL label, 2.5 μl of TUNEL enzyme and 0.1 mg/ml of DAPI) was added directly on top of the slide, cells were incubated for 16 h in humid box at 37° C. Cover slips were rinsed three times with PBS and mounted on microscope slides. The slides were dried and then subjected to image acquisition by a florescence microscope. For morphology assay, the cells were seeded at approximately 25% confluence in 6 cm plates with medium containing 1% FCS. Peptides (EPE and Scr) or DMSO or U0126 in a final concentration of 10 μM, were added after 4 h (considered to be time 0), 24 h and 48 h. Images were obtained by a light microscope (Olympus BX51) after 72 h.

[1] = test system: other cell lines examined; assay: Apoptosis (TUNEL, PARP-1 cleavage); format: cell-based
Procedure: as §1, §3

A2352 xenografts = assay: Tumor disappearance and recurrence in A2352 xenografts, EPE peptide compared with PLX4032; format: in vivo, SCID mice
Procedure: FIGS. 6A-6B illustrate that the EPE peptide prevents the growth of human tumor xenografts. CD-1 nude mice were inoculated with MDA-MB-231, LOXIMVI and HCT-116 cells, and SKID mice were inoculated with A2352 cells. Upon tumors establishment, the mice were treated intravenously with the DMSO as well as EPE or Scr peptides in the indicated doses, 3 times a week. The results are averages of 5 mice in each experimental group. The X, Y, Z dimensions of the tumors were measured with a caliper, and the volume was calculated accordingly. The significance of all experiments was at least P<0.001. (B) The EPE peptide prevents tumor recurrence on melanoma xenograft. SCID mice were inoculated with A2352 cells. Upon establishment of tumors mice were treated intravenously with 15 mg/kg EPE peptide (n=7) or intraperitonealy with 15 mg/kg PLX4032 (n=5), at the indicated dose 3 times a week. Tumor size was recorded at the same time using a caliper. Following 3 weeks of treatment, mice were kept for further evaluation monitoring for any tumor recurrence of the effective treated melanoma xenografts. Experiment was concluded 110 days post inoculation (11 weeks after the last treatment) and the overall state of the animals was evaluated. sac=sacrificed, recur=recurrence, met=metastasis.
Tumor dimensions were measured with a digital sliding caliper.

## GQLNHILGILGEPEQED (Synthetic peptide (EPE)) [EPE peptide, NTS-derived peptide with phosphomimetic EPE motif]
c-Myc
  phosphorylation of c-Myc: did inhibit
B-Raf melanoma cells
  cell morphology: inducing cell-break already 24 hours after treatment
Most cell lines examined
  cell morphology: no effect
B-Raf mutated melanomas
  apoptosis (TUNEL, PARP-1): enhanced apoptosis
  apoptosis relative to Taxol: as strong as the apoptosis induced by Taxol
[1]
  apoptosis / cell death: No apoptosis was detected
A2352 xenografts; 15 mg/kg, 3 times a week
  time to complete disappearance of tumors: 10 to 23 days
A2352 xenografts; 15 mg/kg, 3 times a week, 3 weeks, EPE i.v. (n=7), PLX4032 i.p. (n=5), initial ~80 mm3 tumors
  tumor disappearance: complete disappearance of the tumors of all mice
A2352 xenografts; follow up after last treatment, incl. 5 other animals in a repeating experiment
  overall state of animals after treatment: remained healthy up to 11 weeks after treatment
A2352 xenografts; follow up for up to 11 weeks after last treatment
  mice with tumor recurrence: None
